Reference: patent publication US8367829B2, “Bi-functional pyrazolopyridine compounds” (Gilead Sciences, Inc., priority 2010, dated 2013)

Columns and labels:
[1] = target: T1, human recombinant beta-2 adrenoreceptors (Homo sapiens, UniProt P07550); assay: Functional agonism of human recombinant beta-2 adrenoreceptors expressed in CHO cells (cAMP, HTRF); assay type: cell-based; settings: cAMP elevation, 30 min
T1 construct: expressed in transfected cells; host or cells: CHO cells
Experimental: Functional Agonism of Human Recombinant Beta-2 Adrenoreceptors Expressed in Chinese Hamster Oocytes (CHO)
Test compounds were incubated for 30 min with CHO cells expressing the human recombinant beta-2 adrenoreceptors. Agonism of the receptor was measured by the elevation of intracellular cyclic-AMP over control levels detected using a homogeneous time resolved fluorescence (HTRF) format. Compounds were determined to be “full” or “partial” agonists based on the maximum level of cAMP accumulated compared to the control compound isoproterenol which is a full agonist in this assay system. Concentration response curves were generated for test compounds and the EC50 (molar concentration of the agonist which produced 50% of the maximal response for that compound) was determined. These assays were performed using a protocol based on the original description of the assay by Baker, J. G. (2005) Brit. J. Pharmacol.; 144:317-322.
EC50 determinations for the compounds presented above are seen in the third column of Table 1 (Beta 2 EC50).

[2] = tested on: LPS-induced TNF-α release from human peripheral blood mononuclear cells (PBMC); assay: Inhibition of LPS-induced TNF-α release from human PBMC; assay type: cell-based; settings: LPS 0.4 ng/mL, 6 h, presence or absence of ICI-118551 not given
Source text: Inhibition of Lipopolysaccharide (LPS)-Induced Tumour Necrosis Factor Alpha (TNF-α) Release from Human Peripheral Blood Mononuclear Cells (PBMC)
Human whole blood was drawn from donors and cell purification initiated within two hours. Peripheral blood mononuclear cells (PBMC) were purified using a standard Ficoll gradient purification technique and aliquoted at a concentration of 100,000 cells/well in 96 well plates. Beta-2 adrenoreceptor agonists are also anti-inflammatory for some immune cells expressing the receptor and in this assay they can inhibit tumor necrosis factor-alpha (TNF-α) production. Therefore PBMC were pre-incubated for 30 min in the presence of the beta-2 adrenoreceptor antagonist ICI-118551 (3-(isopropylamino)-1-[(7-methyl-4-indanyl)oxy]butan-2-ol) (10 μM) to determine the PDE4 directed activity of test compounds, and in the absence of ICI-118551 for the combined PDE4 and beta-2 receptor directed activity. Test compounds were dissolved in DMSO and diluted in buffer (final DMSO concentration of 0.1% v/v) and were then added to the cell suspensions and pre-incubated for a further 1 h at 37° C. LPS solution was then added (0.4 ng/mL) and the cells incubated for a further 6 h. At the end of the incubation period the cell supernatants were collected and TNF-α was measured using a Procarta Cytokine Assay Kit (Affymetrix, Santa Clara, Calif.) according to the manufacturers' instructions. Data were analyzed using MiraiBio Masterplex QT v4.0 software (MasterPlex Version 1.0.1.18 Copyright 2008, Hitachi Software Engineering Co., Ltd) and used to extrapolate Mean Fluorescence Intensity (MFI) into concentrations of TNF-α and mean values from replicate wells were determined. Inhibition curves were plotted using a nonlinear curve fit employing a single-site binding model to determine the IC50 value for each test compound in the presence or absence of ICI-118551 using GraphPad Prism 5 for Windows, version 5.02 (GraphPad Software, San Diego Calif.).
EC50 determinations for the compounds presented above are seen in the fourth column of Table 1 (PBMC TNF EC50).

Human recombinant PDE4B2 = target: T2, Human recombinant PDE4B2 (Homo sapiens, UniProt Q07343); assay: Inhibition of PDE4B2 enzyme activity (PDE Glo Assay); assay type: biochemical; settings: human recombinant PDE4B2, 50 nM cAMP; read-out: PDE4 IC50
T2 construct: purchased BPS Bioscience
Experimental: Inhibition of PDE4B4 Enzyme Activity
The inhibitory activity of test compounds were determined using the PDE Glo Assay (Promega, V1361). The PDE-Glo Reaction Buffer was prepared (1 mL 5× buffer+4 mL water) and 150 nM solution of test compound dissolved in the Reaction Buffer, followed by 1:3 serial dilutions into Reaction Buffer. […] Human recombinant PDE4B2 (BPS Bioscience) was added to test compound in Reaction Buffer at a concentration of 0.12 nM per reaction. The enzyme and test compound were pre-incubated together at rt for 10 min. 50 nM of the enzyme substrate cAMP was then added to initiate the enzyme reaction, with the reaction terminated after one hour. Termination Buffer (1 mL 5× termination buffer+3.9 mL water+100 μL of 100 mM IBMX (ICN Chemicals, in DMSO)), was added to each reaction well to terminate the reaction. Detection Buffer (1 mL 5×PDE-Glo Detection buffer+3.96 mL water+40 μL PKA (supplied in kit)) was added to the cAMP-enzyme-test compound mix and this secondary reaction proceeded for 20 minutes at rt. An equal volume of Kinase Glo Reagent was then added to the reaction mixture and after 10 min luminescence was measured using a luminometer (EnVision, 0.1 sec read for luminescence). Luminescence values were […] related to levels of cAMP in the reaction mixture. Data were plotted as relative light units (RLU) versus test compound concentration and the IC50 determined using GraphPad Prism 5.0, using a nonlinear curve fit in a single-site binding model.
IC50 determinations for the compounds presented above are seen in the first column of Table 1 (PDE4 IC50).

[3] = target: T1, human recombinant beta-2 adrenoreceptors; assay: Beta-2 adrenoceptor binding assay, displacement of [3H](−)CGP-12177; settings: CHO cells expressing human beta-2 adrenoreceptors, [3H](−)CGP-12177 0.3 nM, 120 min
Experimental: Beta-2 Adrenoceptor Binding Assay
Test compounds were incubated for 120 min with Chinese hamster oocyte (CHO) cells expressing the human recombinant beta-2 adrenoreceptors. Binding of test compounds to the beta-2 adrenoreceptors was determined by measuring the displacement of the radiolabeled ligand [^3H](−)CGP-12177 (0.3 nM) from the receptor measured by a scintillation counting. Concentration response curves were generated for test compounds and the IC50 (molar concentration of the compound which produced 50% inhibition for the maximal response for that compound) was determined. These assays were performed using a protocol based on the original description of the assay by Joseph et al., (2004) Naun.-Sch. Arch. Pharm.; 369:525-532.
IC50 determinations for the compounds presented above are seen in the second column of Table 1 (Beta 2 IC50).

T1 sequence (P07550 whole entry): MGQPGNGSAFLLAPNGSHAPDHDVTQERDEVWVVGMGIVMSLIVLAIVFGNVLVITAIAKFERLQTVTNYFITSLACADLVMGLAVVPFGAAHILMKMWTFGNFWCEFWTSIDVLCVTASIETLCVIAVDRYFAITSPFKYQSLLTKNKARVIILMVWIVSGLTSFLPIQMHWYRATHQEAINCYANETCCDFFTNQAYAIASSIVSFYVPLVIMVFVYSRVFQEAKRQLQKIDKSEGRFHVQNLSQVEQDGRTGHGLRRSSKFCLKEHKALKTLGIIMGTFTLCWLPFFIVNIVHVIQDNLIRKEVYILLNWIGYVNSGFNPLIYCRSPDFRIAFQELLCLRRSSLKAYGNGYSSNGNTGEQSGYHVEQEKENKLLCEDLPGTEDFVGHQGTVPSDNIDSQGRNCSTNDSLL
T2 sequence (Q07343 1-564 isoform Q07343-2): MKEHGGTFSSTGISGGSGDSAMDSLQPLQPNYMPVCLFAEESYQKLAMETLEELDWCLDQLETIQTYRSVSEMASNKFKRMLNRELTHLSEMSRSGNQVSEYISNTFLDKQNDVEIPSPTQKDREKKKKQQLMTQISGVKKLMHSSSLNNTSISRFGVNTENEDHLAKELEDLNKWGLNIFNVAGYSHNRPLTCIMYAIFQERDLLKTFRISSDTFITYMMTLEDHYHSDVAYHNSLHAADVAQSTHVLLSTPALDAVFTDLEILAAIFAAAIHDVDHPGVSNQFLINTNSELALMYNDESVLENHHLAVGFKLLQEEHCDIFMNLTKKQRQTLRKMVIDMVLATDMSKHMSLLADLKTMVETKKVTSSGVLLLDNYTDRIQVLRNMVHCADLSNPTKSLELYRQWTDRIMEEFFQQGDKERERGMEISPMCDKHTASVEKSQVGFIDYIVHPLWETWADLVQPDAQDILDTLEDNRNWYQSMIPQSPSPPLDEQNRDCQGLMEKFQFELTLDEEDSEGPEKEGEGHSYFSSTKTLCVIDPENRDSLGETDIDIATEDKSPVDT

EC50 [1] [nM]	IC50 (Human recombinant PDE4B2) [nM]	IC50 [3] [nM]	Structure (SMILES)	EC50 [2] [nM]
< 100	< 100	< 100	CCc1nc2c(cnn2CC)c(NC2CCOCC2)c1CNC(=O)c1cccc(CC(C)NC[C@H](O)c2ccc(O)c3[nH]c(=O)ccc23)c1 (stereo partly drawn) [Example 1, N-[[1,6-Diethyl-4-[(tetrahydro-2H-pyran-4-yl)amino]-1H-pyrazolo[3,4-b]pyridin-5-yl]methyl]-3-[2-[[(R)-2-hydroxy-2-(8-hydroxy-2-oxo-1,2-dihydroquinolin-5-yl)ethyl]amino]propyl]benzamide]	< 100
< 100	< 100	> 300	CCc1nc2c(cnn2CC)c(NC2CCOCC2)c1CNC(=O)c1cccc(CC(C)NC[C@H](O)c2ccc(O)c(CO)c2)c1 (stereo partly drawn) [Example 2, N-[[1,6-Diethyl-4-[(tetrahydro-2H-pyran-4-yl)amino]-1H-pyrazolo[3,4-b]pyridin-5-yl]methyl]-3-[2-[[(R)-2-hydroxy-2-[4-hydroxy-3-(hydroxymethyl)phenyl]ethyl]amino]propyl]benzamide]	< 100
< 300	< 100	< 300	CCc1nc2c(cnn2CC)c(NC2CCOCC2)c1CNC(=O)c1cccc(CC(C)(C)NC[C@H](O)c2ccc(O)c(CO)c2)c1 [Example 3, (R)—N-[[1,6-Diethyl-4-[(tetrahydro-2H-pyran-4-yl)amino]-1H-pyrazolo[3,4-b]pyridin-5-yl]methyl]-3-[2-[[2-hydroxy-2-[4-hydroxy-3-(hydroxymethyl)phenyl]ethyl]amino]-2-methylpropyl]benzamide]	< 100
< 100	< 100	< 100	CCc1nc2c(cnn2CC)c(NC2CCOCC2)c1CNC(=O)c1cccc(CC(C)(C)NC[C@H](O)c2ccc(O)c3[nH]c(=O)ccc23)c1 [Example 4, (R)—N-[[1,6-Diethyl-4-[(tetrahydro-2H-pyran-4-yl)amino]-1H-pyrazolo[3,4-b]pyridin-5-yl]methyl]-3-[2-[[2-hydroxy-2-(8-hydroxy-2-oxo-1,2-dihydroquinolin-5-yl)ethyl]-amino]-2-methylpropyl]benzamide]	< 100
< 100	< 100	< 300	CCc1nc2c(cnn2CC)c(NC2CCOCC2)c1CNC(=O)c1cccc(CNC[C@H](O)c2ccc(O)c3[nH]c(=O)ccc23)c1 [Example 5, (R)—N-[[1,6-Diethyl-4-[(tetrahydro-2H-pyran-4-yl)amino]-1H-pyrazolo[3,4-b]pyridin-5-yl]methyl]-3-[[[2-hydroxy-2-(8-hydroxy-2-oxo-1,2-dihydroquinolin-5-yl)ethyl]amino]methyl]benzamide]	< 100
< 100	< 100	> 300	CCc1nc2c(cnn2CC)c(NC2CCOCC2)c1CNC(=O)c1ccc(CNC[C@H](O)c2ccc(O)c3[nH]c(=O)ccc23)cc1 [Example 6, (R)—N-[[1,6-diethyl-4-[(tetrahydro-2H-pyran-4-yl)amino]-1H-pyrazolo[3,4-b]pyridin-5-yl]methyl]-4-[[[2-hydroxy-2-(8-hydroxy-2-oxo-1,2-dihydroquinolin-5-yl]ethyl]amino]methyl]benzamide]	< 100
> 300	< 100	> 300	CCc1nc2c(cnn2CC)c(NC2CCOCC2)c1CNC(=O)c1cccc(CNC[C@H](O)c2ccc(O)c(CO)c2)c1 [Example 7, (R)—N-[[1,6-Diethyl-4-[(tetrahydro-2H-pyran-4-yl)amino]-1H-pyrazolo[3,4-b]pyridin-5-yl]methyl]-3-[[[2-hydroxy-2-[4-hydroxy-3-(hydroxymethyl)phenyl]ethyl]amino]methyl]benzamide]	> 300
> 300	< 100	> 300	CCc1nc2c(cnn2CC)c(NC2CCOCC2)c1CNC(=O)c1ccc(CNC[C@H](O)c2ccc(O)c(CO)c2)cc1 [Example 8, (R)—N-[[1,6-diethyl-4-[(tetrahydro-2H-pyran-4-yl)amino]-1H-pyrazolo[3,4-b]pyridin-5-yl]methyl]-4-[[[2-hydroxy-2-[4-hydroxy-3-(hydroxymethyl)phenyl]ethyl]amino]methyl]benzamide]	< 300
< 100	< 100	< 100	CCc1nc2c(cnn2CC)c(NC2CCOCC2)c1CNC(=O)c1ccc(CCCCCNC[C@H](O)c2ccc(O)c3[nH]c(=O)ccc23)cc1 [Example 9, (R)—N-[[1,6-diethyl-4-[(tetrahydro-2H-pyran-4-yl)amino]-1H-pyrazolo[3,4-b]pyridin-5-yl]methyl]-4-[5-[[2-hydroxy-2-(8-hydroxy-2-oxo-1,2-dihydroquinolin-5-yl)ethyl]amino]pentyl]benzamide]	< 100
< 100		< 100	CCc1nc2c(cnn2CC)c(NC2CCOCC2)c1CNc1c(Nc2ccc(CCCCCNC[C@H](O)c3ccc(O)c4[nH]c(=O)ccc34)cc2)c(=O)c1=O [Example 13, (R)-3-(((1,6-diethyl-4-((tetrahydro-2H-pyran-4-yl)amino)-1H-pyrazolo[3,4-b]pyridin-5-yl)methyl)amino)-4-((4-(5-((2-hydroxy-2-(8-hydroxy-2-oxo-1,2-dihydroquinolin-5-yl)ethyl)amino)pentyl)phenyl)amino)cyclobut-3-ene-1,2-dione]	< 100
< 100		< 100	CCc1nc2c(cnn2CC)c(NC2CCOCC2)c1CNC(=O)Nc1ccc(CCCCOCCCCCCNC[C@H](O)c2ccc(O)c3[nH]c(=O)ccc23)cc1 [Example 14, (R)-1-((1,6-diethyl-4-((tetrahydro-2H-pyran-4-yl)amino)-1H-pyrazolo[3,4-b]pyridin-5-yl)methyl)-3-(4-(4-((6-((2-hydroxy-2-(8-hydroxy-2-oxo-1,2-dihydroquinolin-5-yl)ethyl)amino)hexyl)oxy)butyl)phenyl)urea]	< 100
< 100		< 100	CCc1nc2c(cnn2CC)c(NC2CCOCC2)c1CNC(=O)Nc1ccc(C#CCCCNC[C@H](O)c2ccc(O)c3c2OCC(=O)N3)cc1 [Example 15]	< 100
